Literature values as cited in patent publication US20100144679A1, “MEDICATION KITS AND FORMULATIONS FOR PREVENTING, TREATING OR REDUCING SECONDARY FRACTURES AFTER PREVIOUS FRACTURE” (DUKE UNIVERSITY, priority 2007, published 2010).

Columns and labels:
bone resorption [1] = test system: bone resorption
bone resorption [2] = test system: bone resorption; remark: listed apart in the source
[3] = patients with reduced creatinine clearances

Row | Structure (SMILES) | concentrations at which bone resorption is inhibited in vitro (bone resorption [1]) [nM] | untoward effects on bone formation or mineralization (bone resorption [2]; at the concentrations and doses that inhibit bone resorption) | doses at which bone resorption is inhibited in vivo (bone resorption [2]; in vivo) [µg/kg] | fall rates [3]
1 | O=P(O)(O)C(O)(Cn1ccnc1)P(=O)(O)O [zoledronic acid, 1-hydroxy-2-(imidazol-1-yl)ethane-1,1-d-iphosphonic acid] | 0.3 to 30 | without exerting any untoward effects on either bone formation or mineralization | 0.3 to 30 | 
2 | C=C1/C(=C\C=C2/CCC[C@]3(C)[C@@H]([C@H](C)CCCC(C)(C)O)CC[C@@H]23)C[C@@H](O)C[C@@H]1O [calcitriol] |  |  |  | reduces fall rates
